| Structure (SMILES) | melting point |
| --- | --- |
| COc1ccc(Cn2cnc3c(-c4ccco4)nc(C)nc32)cc1 | 127 to 130 °C |
| COC(=O)c1cc(Cl)cc(C=O)c1O | 132 to 134 °C |
| CCN(CC)C(=O)N(C1CCCCC1)C1CCN(C(=O)C(Cc2ccc(Cl)cc2)NC2CCNCC2)CC1 (stereo not drawn) | > 220 °C |
| COC(=O)c1[nH]c2ccc(OC)cc2c1SC | 128 to 130 °C |
| CN1c2ccccc2N(C(=O)c2ccccc2)C(=O)c2cccnc21 | 181 to 183 °C |
| CC(C)OC(=O)C(C(=O)Nc1ccccc1)=C1SCS1 | 115 to 116 °C |
| CNC(=O)C(NC(=O)OCc1ccccc1)C(N)=O (stereo not drawn) | 178 to 180 °C |
| CCN=C1SC(=CC(=O)O)C(=O)N1CC | 148 to 152 °C |
| OCc1ncc(-c2cccs2)s1 | 67 to 68 °C |
| COCOc1ccccc1-c1cc(-c2cc([N+](=O)[O-])ccc2Cl)c(C#N)c(NC(=O)c2cccs2)n1 | 208 to 209 °C |
| CCC(O)(CC)CC/C=C(\C)c1ccc(COc2ccc(CO)c(CO)c2)s1 | 100 to 102 °C |
| CCc1nc(/C=C/c2cn(-c3ccccc3)nc2OCc2ccc(OCc3nc(-c4ccc(CC(=O)O)cc4)oc3C)c(OC)c2)c(C)s1 | 198 to 199 °C |
| c1c(N2CCC3(CC2)OCCO3)nc(N2CCNCC2)nc1N1CCC2(CC1)OCCO2 | 122 to 126 °C |
| CCn1cncc1/C=C/c1cn(-c2ccccc2)nc1OCc1ccc(OCc2nc(-c3ccco3)oc2C)c(OC)c1 | 130 to 132 °C |
| COc1cc(CCC(=O)O)ccc1OCCCc1cn(-c2ccc(C(F)(F)F)cn2)nc1C(C)C | 118 to 119 °C |
| OCCSc1ccc2cc(SCCO)ccc2c1 | 113 to 117 °C |
| CCCc1ccc2nc(N)sc2c1 | 120 to 122 °C |
| O=C1CCC(C(=O)Nc2ccc(Cl)cc2C(=O)c2ccccc2Cl)O1 (stereo not drawn) | 170 to 173 °C |
| CSC(CC(=O)O)c1ccncc1 (stereo not drawn) | 187 to 189 °C |
| O=C(NNC(=O)c1ccccc1C(F)(F)F)c1ccccc1Cl | 81.5 to 82.5 °C |
| COc1ccc(-c2ccc3c(c2)C2(CO3)C(=O)N(Cc3ccc(Cl)s3)c3ccccc32)cn1 (stereo not drawn) | 60 to 62 °C |
| N#Cc1c(N)cccc1N | 91 to 92 °C |
| Cc1ccc(C(c2ccccc2)C(O)CN(C)C)cc1 (stereo not drawn) | 55 to 58 °C |
| CC(=O)NC1CCC(CNc2nc3c(s2)CCOc2ccccc2-3)CC1 (stereo not drawn) | 69 to 72 °C |
| O=c1c(Cl)c(CCl)nc2scnn12 | 193 to 195 °C |
| COc1ccc(S(N)(=O)=O)cc1C1CO1 (stereo not drawn) | 118 °C |

| Structure (SMILES) | melting point |
| --- | --- |
| CCOC(=O)c1c(C)cc(O)c(C(=O)OCC)c1O | 61 to 62 °C |
| CC(=O)Nc1cc(Oc2ccc3c(C(=O)Nc4ccc(N5CCC[C@H](N)C5)c(C(F)(F)F)c4)cccc3c2)ncn1 | 218 to 228 °C |
| CC(C)c1ccc(-n2nc(C(F)(F)F)cc2-c2ccc(S(C)(=O)=O)cc2)cc1Cl | 84 to 86 °C |
| CCc1cc(=O)c(C(=O)OC)c(CC)[nH]1 | 124 to 127 °C |
| CSc1ccccc1-c1ccc(C(=O)O)cc1 | 220 to 222 °C |
| C#Cc1ccc(-c2ccccc2F)cc1 | 28.5 to 31 °C |
| COCCN1CCC(c2ccc(C(=O)NC3(C(=O)NCC#N)CCCCC3)cc2)CC1 | 160 to 162 °C |
| COc1ccc(Cn2c(=O)c3nccnc3n(CCCCBr)c2=O)cc1 | 117 to 119 °C |
| CN(C)C1CCc2oc3ccc([N+](=O)[O-])cc3c2C1 (stereo not drawn) | 88 to 89 °C |
| Nc1sc2c(c1Cc1cccs1)CCN(Cc1ccccc1)C2 | 122 to 123 °C |
| OCc1cccc2sc(-c3ccccc3)nc12 | 116 to 117 °C |
| O=C(Nc1ccc(F)c(C(F)(F)F)c1)N1COc2cc(O)ccc21 | 171 to 172 °C |
| Cn1c(C(=O)Nc2cc3c(cn2)[nH]c2ccccc23)cc2ccccc21 | 300 to 301 °C |
| CCOC(=O)c1ccc(NC2(C(N)=O)CCCCC2)cc1 | 155 to 157 °C |
| CC(C)C(=O)Oc1ccc2c(c1)CCC1C2CCC2(C)C1CC(O[Si](C)(C)C(C)(C)C)C2OC(=O)C(C)C (stereo not drawn) | 114 °C |
| Cc1nccn1CCC(C(N)=O)(c1ccccc1)c1ccccc1 | 191 to 193 °C |
| CCOC(=O)Cn1cc(C(=O)NCc2ccc(Cl)cc2Cl)c(OCC)n1 | 120 to 121 °C |
| Cc1cc(-c2nnc3c4ccccc4c(OCc4ccn(C)n4)nn23)no1 | 243 to 244 °C |
| O=C1NCC(c2ccco2)SCC1N1C(=O)c2ccccc2C1=O (stereo not drawn) | 235 °C |
| CCn1c(=O)c2[nH]c(C(F)=Cc3ccccc3)nc2n(CC)c1=O | > 280 °C |
| CCCc1ccccc1OCC(O)COc1cccc2oc(C(=O)O)cc(=O)c12 (stereo not drawn) | 168 to 170 °C |
| COc1ccc(-c2ccc(C(C)C=O)cc2F)cc1 (stereo not drawn) | 55 to 59 °C |
| O=C(Nc1cccc(S(=O)(=O)Nc2ccccc2)c1)c1cnn2c(C(F)F)cc(-c3ccc(C(F)(F)F)cc3)nc12 | 228 °C |
| Brc1ccc(OCCCCCN2CCN(c3nccs3)CC2)cc1 | 73 to 75 °C |
| OCC(O)(c1ccccc1)C(Cl)c1ccccc1 (stereo not drawn) | 108 to 109 °C |
| COc1ccc2ncc([N+](=O)[O-])c(O)c2c1 | 278 to 281 °C |

| Structure (SMILES) | melting point |
| --- | --- |
| Cn1cc(C(=O)O)c(=O)c2cc3cc(F)c(N4CCNC(c5ccc(OCCO)cc5)C4)c(F)c3nc21 (racemic) | 226 to 228 °C |
| Cn1c(-c2ccccc2)cc(O)c(C(=N)c2ccccc2)c1=O | 238 to 240 °C |
| O=c1[nH]c2cc(Cl)cc(Cl)c2c(=O)n1Cc1ccccc1Cl | 193 to 198 °C |
| Nc1ccc([N+](=O)[O-])cc1I | 90 to 95 °C |
| CN(C)CCCN(C)C(=O)C(Cc1ccccc1)NC(=O)c1cc2cc(Cl)ccc2[nH]1 (stereo not drawn) | 187 to 190 °C |
| COC(=O)C(=O)c1ccc(OCCOc2cc(OC)c(OC)c(OC)c2)cc1 | 82 to 83 °C |
| N#Cc1cc(N)ccc1N1CCC(N2CCC(O)CC2)CC1 | 175 °C |
| Cc1ccc(-c2ccc(C(=O)c3ccc(Cl)cc3Cl)cc2)cc1 | 184 to 185 °C |
| COc1c(Cl)c(-c2ccc(C(C)C)cc2)cc2oc(=O)c(C)c(C)c12 | 168 °C |
| CCCOc1ccc(CN2CCOCC2)cc1-c1nc2c(CCC)nn(C)c2c(=O)[nH]1 | 106 to 107 °C |
| CN(C)C(=O)n1cc(C(=O)C2CSC(c3cccnc3)N2C=O)c2ccc(OCc3ccccc3)cc21 (stereo not drawn) | 90 °C |
| CCCc1c(OCCCCCOc2ccc(C(=O)CCCC(=O)O)cc2CCC(=O)O)ccc2c1OCCC2=O | 151 to 154 °C |
| Cc1cc(C#N)cc(-c2ccc3c(c2)C(C)(C)OC(=S)N3)c1 | 230 to 231 °C |
| CCc1cc(C(=O)OC)c(Nc2ccc(OC)cc2[N+](=O)[O-])s1 | 125 to 127 °C |
| OCC[C@H]1[C@@H]2O[C@@H]2C(F)(F)[C@@H]1O | 59 to 59.5 °C |
| Cn1cc(Oc2cc(Cl)ccc2Cl)c(=O)c(-c2cccc(C(F)(F)F)c2)c1 | 162 to 164 °C |
| CCC(CC)N1CCN(C)c2c1cc(C)nc2Oc1c(C)cc(C)cc1C | 78 to 80 °C |
| COc1ccc2cc(CN(C)C(=O)c3ccc(Oc4cc(Cl)cc(Cl)c4)o3)ccc2c1Br | 115 to 117 °C |
| COc1cc(-c2cc(C)no2)cc2oc(=O)c(C)c(C)c12 | 148 to 150 °C |
| CCOC(C)O[C@H]1C(=O)N(C(=O)OC(C)(C)C)[C@H]1c1ccccc1 (stereo partly drawn) | 90 to 91 °C |
| CCCCCCCCn1c(C)cc2ccccc21 | 121 to 123 °C |
| COC(=O)c1cc(SC(F)(F)F)c(-c2ccc(Cl)cc2)[nH]1 | 133 to 137 °C |
| COC1(c2cccc3[nH]ccc23)CCCNC1 (stereo not drawn) | 212 °C |
| O=[N+]([O-])c1cc(S(=O)(=O)C(F)(F)F)[nH]c1-c1ccc(Cl)cc1 | 97 to 99 °C |
| COc1cc(OC)nc(Oc2cccc(Cl)c2N)n1 | 86 to 87 °C |
| COc1ccc2c(c1)C(=O)C(Cc1ccccc1)CN2S(=O)(=O)c1ccc(C)cc1 (stereo not drawn) | 101 to 103 °C |

| Structure (SMILES) | melting point |
| --- | --- |
| Cc1cc2c(-c3ccccc3C)c(NC(=O)Nc3ccc(F)cc3F)c(=O)n(C)c2cc1Cl | 227 to 229 °C |
| CCOC(=O)C(=C1NCCCS1)[N+](=O)[O-] | 100 to 102 °C |
| CC(CS)C(=O)Nc1cncc(C(=O)O)c1 (stereo not drawn) | 160 to 165 °C |
| COCN1C(C)=C(C(=O)OCc2ccccc2)C(c2cccc(Cl)c2Cl)C(C(=O)OCc2ccccc2)=C1C | 116 to 117 °C |
| O=C1Nc2ccccc2C1C(=O)c1cccnc1 (stereo not drawn) | 169 to 170 °C |
| CC(=Cc1ccccc1)S(=O)(=O)NC(=O)N1CCCCC1 | 159 to 161 °C |
| CN(CCOc1ccc(C(N)=O)cc1)CCc1ccc([N+](=O)[O-])cc1 | 116 to 118 °C |
| C#CCN1CCCc2ccc(OC(=O)Nc3ccccc3Br)cc21 | 105 °C |
| COC(CNC(=O)c1cccc(C(=O)NCC(OC)OC)c1)OC | 76.5 to 78 °C |
| COc1cc(COc2nn(-c3ccccc3)cc2/C=C/C#N)ccc1OCc1nc(-c2ccccc2)oc1C | 184 to 185 °C |
| CCN1c2ncccc2C(=NOC)Nc2c(C)cc(C)nc21 | 164 to 166 °C |
| O=C(C=Cc1cccc(Br)c1)c1ccc(OC2CCCCO2)cc1 (stereo not drawn) | 166 to 168 °C |
| CCCCc1nc(Cl)c(CO)n1Cc1ccc(-c2nc3ccccn3c2C(=O)O)cc1 | 173 to 175 °C |
| O=C(C1=Cc2ccccc2C1)c1ccc(OC(F)(F)F)cc1 | 115 to 117 °C |
| CC(C)(C)c1csc(N)c1C#N | 92 °C |
| C=CCNc1nc(CO)cs1 | 74 to 75 °C |
| O=C1c2ccccc2C(=O)N1CCCOc1ccc(O)cc1 | 135 to 137 °C |
| Cc1cccc2c1C(=O)N(C1CCC(=O)NC1=O)C2=O (stereo not drawn) | 290 to 292 °C |
| CN(C(=O)C1(CCCCCCCCCCCCC2(C(=O)O)CC2)CC1)S(C)(=O)=O | 62.9 to 63.7 °C |
| CC(C)(CO)c1ccc(C#N)cc1 | 70 to 82 °C |
| O=C1C2C3CCC(C4CC43)C2C(=O)N1c1cc(Cl)cc(Cl)c1 (stereo not drawn) | 145 to 153 °C |
| COc1cc(C)ccc1-c1nc(C)c(-c2cccnc2)n1O | 75 to 80 °C |
| O=[N+]([O-])c1ccc(C=NCCc2cccs2)cc1 | 83.9 to 84.4 °C |
| CCCCC(C)OC(=O)Nc1ccc(-c2ncn(-c3ccc(OC(F)(F)F)cc3)n2)cc1 (stereo not drawn) | 111 to 113 °C |
| CC(=O)NC(=O)Nc1ccc(OS(=O)(=O)c2cccc(C(F)(F)F)c2)cc1N | 182 °C |

— a melting point compilation (Tetko et al.; mined from patent text by program, amines drawn as free bases though some values may be those of a salt)
